Legend:
AXL = biological target: T1, AXL (Homo sapiens, UniProt P30530); assay: TR-FRET kinase activity assay, AXL; assay type: biochemical; settings: ATP at Km, 60 minutes
T1 sequence (P30530 26-894): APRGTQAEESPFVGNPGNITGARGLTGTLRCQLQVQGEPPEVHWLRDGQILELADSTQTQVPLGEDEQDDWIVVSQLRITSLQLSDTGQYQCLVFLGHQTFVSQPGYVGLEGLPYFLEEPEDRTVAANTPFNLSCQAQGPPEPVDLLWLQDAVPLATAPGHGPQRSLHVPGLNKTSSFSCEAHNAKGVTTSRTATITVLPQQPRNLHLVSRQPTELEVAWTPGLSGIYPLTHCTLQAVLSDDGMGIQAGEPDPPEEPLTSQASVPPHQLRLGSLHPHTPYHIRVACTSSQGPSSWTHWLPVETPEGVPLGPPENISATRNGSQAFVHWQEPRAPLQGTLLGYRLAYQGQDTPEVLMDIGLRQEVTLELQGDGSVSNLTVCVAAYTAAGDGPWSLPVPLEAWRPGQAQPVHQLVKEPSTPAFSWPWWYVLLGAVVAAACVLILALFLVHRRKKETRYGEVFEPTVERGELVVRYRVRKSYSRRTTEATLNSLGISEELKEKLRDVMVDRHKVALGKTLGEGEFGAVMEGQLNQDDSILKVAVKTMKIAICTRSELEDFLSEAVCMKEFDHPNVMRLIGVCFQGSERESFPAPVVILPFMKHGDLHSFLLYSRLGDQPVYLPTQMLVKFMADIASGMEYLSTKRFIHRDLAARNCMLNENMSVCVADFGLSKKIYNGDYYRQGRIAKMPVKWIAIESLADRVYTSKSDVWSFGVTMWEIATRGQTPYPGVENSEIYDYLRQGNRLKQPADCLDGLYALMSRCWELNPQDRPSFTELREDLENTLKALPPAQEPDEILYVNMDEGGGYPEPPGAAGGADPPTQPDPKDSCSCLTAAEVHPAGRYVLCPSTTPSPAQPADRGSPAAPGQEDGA
Method in brief: (§1)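 Enzyme + labelled peptide + cpd premixed; ATP at per-enzyme Km starts rxn. 60 min RT, HEPES pH 7.5/MgCl2/EGTA/Brij 35/DTT buffer. Stop 12.5 mM EDTA, Eu phospho-Ab 30 min dark, TR-FRET read → IC50.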

FLT3 = biological target: T2, FLT3 (Homo sapiens, UniProt P36888); assay: TR-FRET kinase activity assay, FLT3; assay type: biochemical; settings: ATP at Km, 60 minutes
T2 sequence (P36888 27-993): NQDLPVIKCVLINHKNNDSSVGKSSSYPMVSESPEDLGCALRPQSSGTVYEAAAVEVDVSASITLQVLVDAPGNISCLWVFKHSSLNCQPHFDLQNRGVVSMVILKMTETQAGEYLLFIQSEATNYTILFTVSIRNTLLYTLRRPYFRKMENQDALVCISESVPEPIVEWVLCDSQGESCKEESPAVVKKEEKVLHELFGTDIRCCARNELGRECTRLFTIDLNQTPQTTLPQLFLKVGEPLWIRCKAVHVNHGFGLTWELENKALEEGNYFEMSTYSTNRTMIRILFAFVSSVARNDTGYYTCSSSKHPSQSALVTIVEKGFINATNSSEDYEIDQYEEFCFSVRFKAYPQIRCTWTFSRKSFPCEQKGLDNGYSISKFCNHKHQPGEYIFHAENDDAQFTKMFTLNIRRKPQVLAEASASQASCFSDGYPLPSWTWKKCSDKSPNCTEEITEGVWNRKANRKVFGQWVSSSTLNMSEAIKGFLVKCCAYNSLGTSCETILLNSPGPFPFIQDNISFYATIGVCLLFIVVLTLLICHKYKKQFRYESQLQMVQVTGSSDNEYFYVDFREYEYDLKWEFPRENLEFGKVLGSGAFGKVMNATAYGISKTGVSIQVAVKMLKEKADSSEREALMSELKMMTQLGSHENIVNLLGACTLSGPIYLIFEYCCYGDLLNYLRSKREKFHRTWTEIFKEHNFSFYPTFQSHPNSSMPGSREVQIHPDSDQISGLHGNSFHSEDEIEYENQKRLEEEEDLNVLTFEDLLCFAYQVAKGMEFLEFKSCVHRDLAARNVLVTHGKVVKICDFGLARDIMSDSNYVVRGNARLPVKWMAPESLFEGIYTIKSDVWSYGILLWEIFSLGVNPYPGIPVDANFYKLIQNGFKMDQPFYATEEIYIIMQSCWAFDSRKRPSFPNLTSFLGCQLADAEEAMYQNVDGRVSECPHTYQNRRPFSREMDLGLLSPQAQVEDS
Method in brief: as §1

IC50 (AXL) [nM] | IC50 (FLT3) [nM] | SMILES
≤ 100 | 100 to 1000 | COC[C@H](C)Nc1ncc2c(-c3cnn(CS(C)(=O)=O)c3)cc([C@H]3CC[C@H](O)CC3)n2n1 [Compound 419]
≤ 100 | 100 to 1000 | COC[C@H](C)Nc1ncc2c(-c3cnn(CC4COC4)c3)cc([C@H]3CC[C@H](O)CC3)n2n1 [Compound 420]
≤ 100 | 100 to 1000 | COC[C@H](C)Nc1ncc2c(-c3cnn([C@@H]4CO[C@H]5OCC[C@H]54)c3)cc([C@H]3CC[C@H](O)CC3)n2n1 [Compound 422]

From US11040981B2, “Pyrrolotriazine compounds and methods of inhibiting TAM kinases” (Syros Pharmaceuticals, Inc., priority 2017, dated 2021)
